This is an account of results in ChEMBL document CHEMBL1641570, “New hydroxystilbenoid derivatives endowed with neuroprotective activity and devoid of interference with estrogen and aryl hydrocarbon receptor-mediated transcription” (Bioorg Med Chem, 2011).

SMILES strings stand for the structures.

Data set [1] deals with T1, Estrogen receptor beta (Homo sapiens, UniProt Q92731). Description: Agonist activity at human ERbeta receptor expressed in human HEK293 cells co-expressing ERE assessed as increase of estradiol-induced luciferase gene expression at 1 uM after 18 hrs relative to estradiol. The format is cell-based. The following applies: for Activity: hek293, 18 h, 1 µM; for activity at 18 h, 1 µM: read-out: Activity.
T1 sequence (Q92731 whole entry): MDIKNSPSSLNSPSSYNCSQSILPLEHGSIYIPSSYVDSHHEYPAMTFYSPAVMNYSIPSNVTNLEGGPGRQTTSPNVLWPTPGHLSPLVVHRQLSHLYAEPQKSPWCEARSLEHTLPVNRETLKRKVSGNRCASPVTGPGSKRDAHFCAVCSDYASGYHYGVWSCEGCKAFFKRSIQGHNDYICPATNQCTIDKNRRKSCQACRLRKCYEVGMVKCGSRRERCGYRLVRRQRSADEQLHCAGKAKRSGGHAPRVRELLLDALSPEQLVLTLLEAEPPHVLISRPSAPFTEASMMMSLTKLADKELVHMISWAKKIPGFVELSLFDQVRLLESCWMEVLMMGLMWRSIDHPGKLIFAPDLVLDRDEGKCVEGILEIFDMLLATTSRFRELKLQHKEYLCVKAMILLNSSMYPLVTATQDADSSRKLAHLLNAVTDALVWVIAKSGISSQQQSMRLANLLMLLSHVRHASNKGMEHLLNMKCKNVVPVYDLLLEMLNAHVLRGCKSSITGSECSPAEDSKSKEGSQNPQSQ

For data set [2], the target named is T2, Estrogen receptor (Homo sapiens, UniProt P03372).
T2 sequence (P03372 whole entry): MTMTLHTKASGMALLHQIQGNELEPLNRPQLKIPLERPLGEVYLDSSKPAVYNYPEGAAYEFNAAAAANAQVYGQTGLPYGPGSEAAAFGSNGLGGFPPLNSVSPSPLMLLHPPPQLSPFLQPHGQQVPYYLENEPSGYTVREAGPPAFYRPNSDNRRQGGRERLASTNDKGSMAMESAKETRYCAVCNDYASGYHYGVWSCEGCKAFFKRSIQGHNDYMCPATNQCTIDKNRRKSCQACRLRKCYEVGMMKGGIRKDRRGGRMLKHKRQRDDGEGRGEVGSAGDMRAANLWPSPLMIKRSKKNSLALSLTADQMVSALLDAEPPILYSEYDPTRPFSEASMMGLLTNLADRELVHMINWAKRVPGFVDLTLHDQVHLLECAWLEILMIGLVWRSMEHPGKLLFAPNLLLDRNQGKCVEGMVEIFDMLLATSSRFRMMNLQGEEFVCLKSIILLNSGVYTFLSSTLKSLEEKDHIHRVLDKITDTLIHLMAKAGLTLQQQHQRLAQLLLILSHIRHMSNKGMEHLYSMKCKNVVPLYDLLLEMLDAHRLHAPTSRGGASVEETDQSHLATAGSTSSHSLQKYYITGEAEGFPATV
Kind of data set: Antagonist activity at human ERalpha receptor expressed in human MCF7:D5L cells co-expressing ERE assessed as inhibition of estradiol-induced of luciferase gene expression at 1 uM after 18 hrs relative to ICI182780. The format is cell-based.

Data set [3] in a line: Cytotoxicity against mouse HT22 cells assessed as cell viability at 1 uM after 3 days by LDH release assay relative to control. The format is cell-based, HT-22. The settings on record: read-out: Activity.
Data set [4] addresses T1, Estrogen receptor beta. Kind of data set: Antagonist activity at human ERbeta receptor expressed in human HEK293 cells co-expressing ERE assessed as inhibition of estradiol-induced of luciferase gene expression at 1 uM after 18 hrs relative to ICI182780. Format: cell-based. The settings on record: hek293, 18 h.
For data set [5], the system named is HT-22. Description: Neuroprotective activity in mouse HT22 cells assessed as protection against glutamate-induced oxytosis after 24 hrs by MTT assay. The format is functional, cell-based. The following applies: HT-22, 24 h.
Data set [6] has as its target T3, estrogen receptor alpha (Homo sapiens, UniProt P03372).
T3 sequence (P03372 whole entry): T2 sequence (P03372 whole entry)
Kind of data set: (§1) Partial agonist activity at human ERalpha receptor expressed in human MCF7:D5L cells co-expressing ERE assessed as increase of estradiol-induced luciferase gene expression at 1 uM after 18 hrs relative to estradiol. The format is cell-based. The settings on record: read-out: Activity.

Data set [7] has as its system Ishikawa. Kind of data set: Cytotoxicity against human Ishikawa cells by LDH release assay. Format: cell-based. For orientation: LDH in the medium is a marker of cell lysis.
In data set [8] the test system is HT-22. Description: Neuroprotective activity in mouse HT22 cells assessed as protection against glutamate-induced oxytosis after 24 hrs by MTT assay relative to resveratrol. Format: functional. (Tetrazolium dyes change colour on reduction, which living cells bring about.)
Data set [9] in a line: Antagonist activity at estrogen receptor in human Ishikawa cells assessed as inhibition of estradiol-induced alkaline phosphatase expression at 1 uM after 72 hrs relative to ICI182780. Format: cell-based.
For data set [10], the target named is Aryl hydrocarbon receptor (Mus musculus) (UniProt P30561). Description: Activity at AhR expressed in mouse H1L1.1c2 cells co-expressing XRE assessed as increase of benzo[b]fluoranthene-induced luciferase gene expression at 1 uM after 72 hrs.
Chain of Aryl hydrocarbon receptor (Mus musculus) (P30561 whole entry, looked up): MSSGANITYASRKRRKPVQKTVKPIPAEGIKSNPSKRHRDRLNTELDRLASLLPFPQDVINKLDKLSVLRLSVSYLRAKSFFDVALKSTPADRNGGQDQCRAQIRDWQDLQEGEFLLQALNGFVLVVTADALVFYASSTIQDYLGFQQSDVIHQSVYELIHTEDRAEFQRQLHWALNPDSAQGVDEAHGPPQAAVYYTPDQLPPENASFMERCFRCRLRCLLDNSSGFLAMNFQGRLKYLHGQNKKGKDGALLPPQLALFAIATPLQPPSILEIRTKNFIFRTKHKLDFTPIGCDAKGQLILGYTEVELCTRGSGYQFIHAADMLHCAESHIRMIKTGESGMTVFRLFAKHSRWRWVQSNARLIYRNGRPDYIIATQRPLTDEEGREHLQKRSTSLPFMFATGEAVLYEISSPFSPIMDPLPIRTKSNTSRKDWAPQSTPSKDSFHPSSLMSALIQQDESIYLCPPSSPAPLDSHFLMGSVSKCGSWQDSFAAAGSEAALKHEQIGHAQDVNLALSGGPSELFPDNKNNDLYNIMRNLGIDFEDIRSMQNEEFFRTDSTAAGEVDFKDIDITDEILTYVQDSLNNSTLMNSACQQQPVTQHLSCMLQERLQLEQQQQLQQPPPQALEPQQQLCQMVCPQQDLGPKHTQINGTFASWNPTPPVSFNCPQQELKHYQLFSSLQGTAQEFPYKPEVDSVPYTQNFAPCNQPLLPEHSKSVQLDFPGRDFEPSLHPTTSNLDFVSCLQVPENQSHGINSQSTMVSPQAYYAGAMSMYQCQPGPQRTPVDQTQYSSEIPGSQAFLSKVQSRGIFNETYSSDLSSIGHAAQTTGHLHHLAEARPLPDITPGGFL
Data set [11] concerns estrogen receptor. Description: (§2) Agonist activity at estrogen receptor in human Ishikawa cells assessed as increase of estradiol-induced alkaline phosphatase expression at 1 uM after 72 hrs relative to estradiol. The format is cell-based. The following applies: Ishikawa cells, read-out: Activity.
The target of data set [12] is T2, Estrogen receptor. Described as §1. The format is cell-based. The settings on record: 18 h, 1 µM.
A short description of data set [13]: as §2. The format is cell-based. The following applies: ishikawa, 72 h, 1 µM.
The test system of data set [14] is MCF7. Kind of data set: Antiproliferative activity against human stradiol-stimulated MCF7 cells at 1 uM after 96 hrs by MTT assay. Format: cell-based. The following applies: mcf7, 96 h.
Data set [15] concerns the target Aryl hydrocarbon receptor (Mus musculus) (UniProt P30561). Description: Activity at AhR expressed in mouse H1L1.1c2 cells co-expressing XRE assessed as induction luciferase gene expression at 10 nM after 72 hrs.

As to `CCC(CC)c1cc(/C=C/c2cc(O)cc(O)c2)ccc1O`, the Activity entry in [1] is “Not Active”; in data set [2], “Not Active”; in data set [4] it was “Not Active”; in data set [7], “Non-toxic”; in data set [9] it was “Not Active”; in [10] it was 1.7%. Besides, the percent cytotoxicity (LDH release relative to control) at 72 h, 1 µM in data set [3] was -1%. Moreover, the EC50 in data set [5] amounted to 432 nM. Moreover, in [6], the activity at 18 h, 1 µM came to 65%. The “Ratio EC50” value in [8] is given as 11. In data set [11], the activity at 72 h, 1 µM worked out at 38%.

Turning to `CC(C)(C)c1cc(/C=C/c2cc(O)cc(O)c2)ccc1O`, the Activity result in data set [1] is reported as “Not Active”; in [2] it was “Not Active”; in [4] it was “Not Active”; in data set [12], “Not Active”; in data set [7], “Non-toxic”; in data set [9], “Not Active”. The Activity is 1.5% in data set [10] and “Not Active” in data set [13]. Further, the percent cytotoxicity (LDH release relative to control) at 72 h, 1 µM in data set [3] is -6%. For the same compound, the EC50 in [5] turned out to be 484 nM. Besides, the “Ratio EC50” value in [8] is given as 9.6.

Turning to `CC(C)(C)c1cc(/C=C/c2cc(O)cc(O)c2)cc(C(C)(C)C)c1O`, the Activity result is given as “Not Active” in [1]; “Not Active” in data set [2]; “Not Active” in data set [4]; “Not Active” in [12]; “Non-toxic” in data set [7]; “Non-toxic” in [14]. The Activity result in data set [9] is listed as “Not Active”; in [10] it was 1.5%; in [13], “Not Active”. Also, the percent cytotoxicity (LDH release relative to control) at 72 h, 1 µM in data set [3] was -6.7%. In addition, in data set [5], the EC50 worked out at 45 nM. Also, the “Ratio EC50” value in data set [8] is on record as 104.

On to `CCC(CC)c1cc(/C=C/C=C/c2cc(O)cc(O)c2)ccc1O`, for which the Activity entry in data set [1] is given as “Not Active”; in data set [2] it was “Not Active”; in data set [4], “Not Active”; in data set [7], “Non-toxic”; in data set [9], “Not Active”; in data set [10], 1.7%. Moreover, in data set [3], the percent cytotoxicity (LDH release relative to control) at 72 h, 1 µM was -5%. Besides, the EC50 in [5] was 79 nM. For the same compound, in [6], the activity at 18 h, 1 µM is 37%. In data set [8], the “Ratio EC50” value stood at 59. Besides, the activity at 72 h, 1 µM in data set [11] was 21%.

In the case of `CCC(CC)c1cc(/C=C/C=C/c2cc(O)cc(O)c2)cc(C(CC)CC)c1O`, the Activity entry in data set [1] is “Not Active”; in [2] it was “Not Active”; in data set [4], “Not Active”; in [12], “Not Active”; in data set [7] it was “Non-toxic”; in data set [14], “Non-toxic”. The Activity result in data set [9] is listed as “Not Active”; in data set [10], 2.2%; in data set [13], “Not Active”. For the same compound, in [3], the percent cytotoxicity (LDH release relative to control) at 72 h, 1 µM is -6%. Besides, the EC50 in data set [5] amounted to 12 nM. For the same compound, the “Ratio EC50” value in data set [8] turned out to be 389.

On to `CC(C)(C)c1cc(/C=C/C=C/c2cc(O)cc(O)c2)ccc1O`, for which the results for the activity at 18 h, 1 µM in [1] and in [6] were 18% and 34%, respectively. The Activity entry in data set [2] is recorded as “Not Active”; in [4], “Not Active”; in data set [7] it was “Non-toxic”; in [9] it was “Not Active”; in [10], 1.6%; in data set [13], “Not Active”. The percent cytotoxicity (LDH release relative to control) at 72 h, 1 µM in [3] was -8.7%. Also, in data set [5], the EC50 worked out at 91 nM. Besides, in data set [8], the “Ratio EC50” value is reported as 51.

For the compound `CC(C)(C)c1cc(/C=C/C=C/c2cc(O)cc(O)c2)cc(C(C)(C)C)c1O`, the Activity entry in data set [1] was “Not Active”; in data set [2], “Not Active”; in data set [4], “Not Active”; in [12], “Not Active”; in data set [7], “Non-toxic”; in [9] it was “Not Active”. The Activity in [10] is 1.6%; in data set [13], “Not Active”. In addition, in data set [3], the percent cytotoxicity (LDH release relative to control) at 72 h, 1 µM was -5.3%. The concentration giving a half-maximal response (EC50) in data set [5] came out at 119 nM. The “Ratio EC50” value in data set [8] was 39.

On to `CC(C)(C)c1cc(/C=C/c2ccc(O)cc2)ccc1O`, for which the activity at 18 h, 1 µM was 19% in data set [1] and 49% in data set [6]. Moreover, the Activity result in data set [2] was “Not Active”; in [4] it was “Not Active”; in [7] it was “Non-toxic”; in [9], “Not Active”; in data set [10] it was 1.5%. Moreover, in data set [3], the percent cytotoxicity (LDH release relative to control) at 72 h, 1 µM was -5.3%. Moreover, in data set [5], the EC50 amounted to 1060 nM. Also, in data set [8], the “Ratio EC50” value was determined as 4.4. Besides, the activity at 72 h, 1 µM in [11] amounted to 25%.

On to `CC(C)(C)c1cc(/C=C/c2cc(C(C)(C)C)c(O)c(C(C)(C)C)c2)cc(C(C)(C)C)c1O`, for which the Activity entry in data set [1] was “Not Active”; in [2], “Not Active”; in data set [4], “Not Active”; in data set [12], “Not Active”; in data set [7] it was “Non-toxic”; in data set [9], “Not Active”. Further, the figures for the Activity in [10] and in data set [13] were 1.4% and “Not Active”, respectively. The percent cytotoxicity (LDH release relative to control) at 72 h, 1 µM in [3] stood at 1.3%. Also, in [5], the concentration for a half-maximal effect (EC50) is 399 nM. The “Ratio EC50” value in data set [8] is recorded as 12.

`COc1c(C(C)(C)C)cc(/C=C/c2cc(O)cc(O)c2)cc1C(C)(C)C`: in data set [5], the EC50 was found to be 621 nM. The “Ratio EC50” value in data set [8] is reported as 7.5.

In the case of `COc1c(C(C)(C)C)cc(/C=C/C=C/c2cc(O)cc(O)c2)cc1C(C)(C)C`, the concentration for a half-maximal effect (EC50) in data set [5] turned out to be 410 nM. For the same compound, in data set [8], the “Ratio EC50” value worked out at 11.

As to `COc1cc(O)cc(/C=C/c2cc(C(C)(C)C)c(O)c(C(C)(C)C)c2)c1`, in data set [5], the EC50 came out at 258 nM. In [8], the “Ratio EC50” value is 18.

With `COc1c(C(C)(C)C)cc(/C=C/c2cc(C(C)(C)C)c(O)c(C(C)(C)C)c2)cc1C(C)(C)C`, in data set [5], the EC50 is more than 10000 nM. In addition, in data set [8], the “Ratio EC50” value is given as less than 1.

With `c1ccc2c(c1)-c1cccc3c1c-2cc1ccccc13` [BENZO[B]FLUORANTHENE], the Activity in data set [15] was 13.1%.

Consider `Oc1ccc(/C=C/c2cc(O)cc(O)c2)cc1` [RESVERATROL], for which, in data set [3], the percent cytotoxicity (LDH release relative to control) at 72 h, 1 µM was found to be 4%. In addition, the 50% effective concentration (EC50) in data set [5] stood at 4670 nM. The Activity entry is recorded as “Not Active” in data set [12]; “Non-toxic” in data set [7]; “Not Active” in data set [9]; 1.2% in data set [10]; “Not Active” in data set [13].

As a reminder, the EC50 is the midpoint of the concentration-response curve.
